Test results published in US7531575B2, “Method of modulating cellular activity and agents useful for same” (Eberhard-Karls-Universität Tübingin, priority 2002, dated 2009).

Tested on: inhibitory-κB (I-κB)
Experiment: phospho-IκBα immunoblot, LPS-stimulated N9 microglia
Assay type: cell-based, murine
Conditions: N9 cells, 1 hr, TNL pre-incubation 1 hr
Description: TNL was a generous gift of Kissei Pharmaceuticals, LPC (Escherichia coli, 0127:BS), phorbol 12-myristate 13-acetate (PMA) and dexamethasone (DEX) were obtained from Sigma, BAY 11-7082 (BAY), NF-κB SN50 inhibitory peptide (SN50), GF 109203X (GFX) and rottlerin (ROT) were purchased from Biomol. PD098059 (PD) was obtained from Calbiochem. Purified murine interferon-γ (IFN-γ) was purchased from Roche Diagnostics. N9 murine microglial cells were a kind gift from P. Ricciardi-Castagnoli (Righi, M. et al. 1989 supra). Cells were cultured in Dulbecco's modified Eagle's medium (DMEM) supplemented with 10% fetal calf serum (FCS), 2 mM glutamine, penicillin (100 unit/mL) and streptomycin (100 μg/mL) and maintained at 37° in an atmosphere of 5% CO2. Viability was assessed by crystal violet staining.
For the preparation of whole cell lysates, the cells were lysed in 0.1 M Tris-HCl (pH 7.2) containing 0.1% NP40, 0.1 mM EDTA and 5 μg/mL phenylmethylsulphonyl fluoride. Twenty micrograms protein was separated by 10-12% SDS-PAGE and electroblotted on nitrocellulose membrane. Equal loading was controlled by Ponceau S staining. […]

COc1ccc(/C=C/C(=O)Nc2ccccc2C(=O)O)cc1OC [tranilast, 2-[[3-(3,4-dimethoxyphenyl)-1-oxo-2-propenyl]amino]benzoic acid]
LPS-mediated phosphorylation of I-κB: did not suppress
